Here are results for 27 molecules from patent US7405228B2, “Antibacterial cyano-(substituted)-methylenepiperidinophenyl oxazolidinones targeting multiple ribonucleoprotein sites” (Wockhardt Limited, priority 2002, dated 2008).

The term MIC denotes the smallest concentration in the dilution series that meets the test's criterion for growth inhibition. For orientation: melting point means the temperature of the solid-liquid transition.

≈ marks a conversion by molar mass, not a printed value.

The first data set concerns SPN 49619. The data set is described as follows: MIC determination, linezolid sensitive SPN 49619. It is filed as cell-based. Particulars: Streptococcus pneumoniae; linezolid sensitive strain, Table 3.
In turn, `CC(C#N)=C1CCN(c2ccc(N3C[C@H](CNC(=O)C(Cl)Cl)OC3=O)cc2F)CC1` [Example 79, (S)-N-{3-[4-(4-(1-cyanoethylidene)-piperidin-1-yl)-3-fluorophenyl]-2-oxo-oxazolidin-5-ylmethyl}-dichloroacetamide] registered an MIC of 0.8 µg/mL (≈ 1.76 µM).

The subject of a further data set is MRSA 032. Nature of the data set: MIC determination, linezolid sensitive MRSA 032 (MRSA-32). It is filed as cell-based. Particulars: Staphylococcus aureus, read-out: MIC MRSA 32. The method, then:
Infecting doses of organisms given by intraperitoneal route in 5% hog gastric mucin were 10^3-10^4 CFU (colony forming units)/animal for SPN 6303 and 10^8 CFU/animal for MRSA-32. In case of MRSA-32, Linezolid was administered by oral route, 1 and 4 h post infection, BID (twice a day) for 1 day and for SPN 6303 BID for 2 days. […] MICs of Methicillin Resistant Staphylococcus aureus-32 Linezolid resistant (MRSA-32 LNZR), S. pneumoniae 744 Linezolid resistant (SPN 744 LNZR) and parent Linezolid sensitive strains MRSA-32 and SPN 6303 were determined for Linezolid by NCCLS agar dilution method.
Cultures were further diluted 1:10 in Mueller Hinton broth. Using Denley's mutipoint inoculator, 10^4 cells were deposited on Mueller Hinton agar (Difco) containing range of 2 fold dilutions of test compounds. […] MIC is defined as minimum drug concentration that inhibits test organisms. For determining MIC of test compounds against Streptococcus pneumoniae, Mueller Hinton agar containing 5% sheep blood was employed.
With `CC(C#N)=C1CCN(c2ccc(N3C[C@H](CNC(=O)C(Cl)Cl)OC3=O)cc2F)CC1` [Example 79, (S)-N-{3-[4-(4-(1-cyanoethylidene)-piperidin-1-yl)-3-fluorophenyl]-2-oxo-oxazolidin-5-ylmethyl}-dichloroacetamide], the minimum inhibitory concentration (MIC) turned out to be 0.8 µg/mL (≈ 1.76 µM).

Tested on in another data set: not given
Experiment: not given
Conditions: not given
The molecule `CC(C#N)=C1CCN(c2ccc(N3C[C@H](CNC(=O)C(Cl)(Cl)Cl)OC3=O)cc2F)CC1` [Example 80, (S)-N-{3-[4-(4-(1-cyanoethylidene)-piperidin-1-yl)-3-fluorophenyl]-2-oxo-oxazolidin-5-ylmethyl}-trichloroacetamide] came in with a melting point of 166 to 168 °C.
The same measure, in the same setting: for `CC(C#N)=C1CCN(c2ccc(N3C[C@H](CNC(=O)OCC(C)C)OC3=O)cc2F)CC1` [Example 81, (S)-N-{3-[4-(4-(1-cyanoethylidene)-piperidin-1-yl)-3-fluorophenyl]-2-oxo-oxazolidin-5-ylmethyl}-isobutylcarbamate] the value was 158 to 160 °C.
Same read-out and setting: the same measure for `CC(C#N)=C1CCN(c2ccc(N3C[C@H](CO)OC3=O)cc2F)CC1` [Example 82, (R)-{3-[4-(4-(1-cyanoethylidene)-piperidin-1-yl)-3-fluorophenyl]-2-oxo-oxazolidin-5-ylmethyl}-alcohol]: 100 to 102 °C; for `CC(C#N)=C1CCN(c2ccc(N3C[C@H](COc4ccon4)OC3=O)cc2F)CC1` [Example 83, (R)-3-{3-[4-(4-(1-cyanoethylidene)-piperidin-1-yl)-3-fluorophenyl]-2-oxo-oxazolidin-5-ylmethyloxy}-iso-oxazole]: 137 to 138 °C.
On the same count and under the same terms, the same measure for `CC(=O)NC[C@H]1CN(c2ccc(N3CC/C(=C(/C)C#N)C(F)C3)c(F)c2)C(=O)O1` (stereo partly drawn) [Example 85, (S)-N-{3-[4-(4-(1-cyanoethylidene)-3-fluoropiperidin-1-yl)-3-fluorophenyl]-2-oxo-oxazolidin-5-ylmethyl}-acetamide]: 148 to 150 °C; for `CC(=O)NC[C@H]1CN(c2ccc(N3CC/C(=C(\C)C#N)C(F)C3)c(F)c2)C(=O)O1` (stereo partly drawn) [Example 87, Z-(S)-N-{3-[4-(4-(1-cyanoethylidene)-3-fluoropiperidin-1-yl)-3-fluorophenyl]-2-oxo-oxazolidin-5-ylmethyl}-acetamide]: 148 to 150 °C; for `CCC(C#N)=C1CCN(c2ccc(N3C[C@H](CNC(=O)C(Cl)(Cl)Cl)OC3=O)cc2F)CC1` [Example 91, (S)-N-{3-[4-(4-(1-cyanopropylidene)-piperidin-1-yl)-3-fluorophenyl]-2-oxo-oxazolidin-5-ylmethyl}-trichloroacetamide]: 150 to 152 °C.
As for `CCC(C#N)=C1CCN(c2ccc(N3C[C@H](CNC(=O)CBr)OC3=O)cc2F)CC1` [Example 92, (S)-N-{3-[4-(4-(1-cyanopropylidene)-piperidin-1-yl)-3-fluorophenyl]-2-oxo-oxazolidin-5-ylmethyl}-bromoacetamide], the melting point lay in the range of 200 to 203 °C.
Take `CC(=O)NC[C@H]1CN(c2ccc(N3CCC(=C(C#N)n4ccnc4)CC3)c(F)c2)C(=O)O1` [Example 102, (S)-N-{3-[4-(4-(1-cyano-1-(imidazol-1-yl)-methylidene)-piperidin-1-yl)-3-fluorophenyl]-2-oxo-oxazolidin-5-ylmethyl}-acetamide]: the melting point is 196 to 198 °C.
Still for that read-out and setting: the same measure for `CC(=O)NC[C@H]1CN(c2ccc(N3CCC(=C(C#N)n4ccnc4C)CC3)c(F)c2)C(=O)O1` [Example 103, (S)-N-{3-[4-(4-(1-cyano-1-(2-methyl-imidazol-1-yl)-methylidene)-piperidin-1-yl)-3-fluorophenyl]-2-oxo-oxazolidin-5-ylmethyl}-acetamide]: 204 to 206 °C.
The same measure, in the same setting: the same measure for `CC(=O)NC[C@H]1CN(c2ccc(N3CCC(=C(C#N)n4cncn4)CC3)c(F)c2)C(=O)O1` [Example 104, (S)-N-{3-[4-(4-(1-cyano-1-(1,2,4-triazol-1-yl)-methylidene)-piperidin-1-yl)-3fluorophenyl]-2-oxo-oxazolidin-5-ylmethyl}-acetamide]: 194 to 196 °C; for `CC(=O)NC[C@H]1CN(c2ccc(N3CCC(=C(C#N)CCO)CC3)c(F)c2)C(=O)O1` [Example 113, (S)-N-{3-[4-(4-(1-cyano-3-hydroxy-propylidene)-piperidin-1-yl)-3-fluorophenyl]-2-oxo-oxazolidin-5-ylmethyl}-acetamide]: 192 to 194 °C; for `N#CCC1CCN(c2ccc(N3C[C@H](CO)OC3=O)cc2)CC1` [Example 124, (R)-{3-[4-(4-cyanomethyl-piperidin-1-yl)-phenyl]-2-oxo-oxazolidin-5-ylmethyl}-alcohol]: 110 to 112 °C.
Still for that read-out and setting: the same measure for `CS(=O)(=O)OC[C@H]1CN(c2ccc(N3CCC(CC#N)CC3)cc2)C(=O)O1` [Example 125, (R)-{3-[4-(4-cyanomethyl-piperidin-1-yl)-phenyl]-2-oxo-oxazolidin-5-ylmethyl}-methanesulphonate]: 114 to 116 °C; for `CC(=O)NC[C@H]1CN(c2ccc(N3CCC(C(C#N)COS(C)(=O)=O)CC3)c(F)c2)C(=O)O1` (stereo partly drawn) [Example 134, (S)-N-{3-[4-(4-(1-cyano-2-methanesulphonyloxy)-ethylpiperidin-1-yl)-3-fluorophenyl]-2-oxo-oxazolidin-5-ylmethyl}-acetamide]: 136 to 138 °C.
`CC(=O)NC[C@H]1CN(c2ccc(N3CCC(C(C#N)n4ccnc4)CC3)c(F)c2)C(=O)O1` (stereo partly drawn) [Example 136, (S)-N-{3-[4-(4-(1-cyano-1-(imidazol-1-yl))-methylpiperidin-1-yl)-3-fluorophenyl]-2-oxo-oxazolidin-5-ylmethyl}-acetamide] displayed a melting point of 210 to 212 °C.
On the same count and under the same terms, for `COC(=O)c1cn(C[C@H]2CN(c3ccc(N4CCC(C(C#N)CO)CC4)c(F)c3)C(=O)O2)nn1` (stereo partly drawn) [Example 150, (S)-1-{3-[4-(4-(1-cyano-2-hydroxy)-ethylpiperidin-1-yl)-3-fluorophenyl]-2-oxo-oxazolidin-5-ylmethyl}-4-methoxycarbonyl-1,2,3-triazole] the value was 204 to 206 °C.
`CCOC(=O)c1cn(C[C@H]2CN(c3ccc(N4CCC(C(C#N)CO)CC4)c(F)c3)C(=O)O2)nn1` (stereo partly drawn) [Example 151, (S)-1-{3-[4-(4-(1-cyano-2-hydroxy)-ethylpiperidin-1-yl)-3-fluorophenyl]-2-oxo-oxazolidin-5-ylmethyl}-4-ethoxycarbonyl-1,2,3-triazole] gave a melting point of 170 to 172 °C.
Still for that read-out and setting: the same measure for `CCOC(=O)c1cnnn1C[C@H]1CN(c2ccc(N3CCC(C(C#N)CO)CC3)c(F)c2)C(=O)O1` (stereo partly drawn) [Example 152, (S)-1-{3-[4-(4-(1-cyano-2-hydroxy)-ethylpiperidin-1-yl)-3-fluorophenyl]-2-oxo-oxazolidin-5-ylmethyl}-5-ethoxycarbonyl-1,2,3-triazole]: 76 to 78 °C; for `N#CC(CO)C1CCN(c2ccc(N3C[C@H](COc4ccon4)OC3=O)cc2F)CC1` (stereo partly drawn) [Example 153, (R)-3-{3-[4-(4-(1-cyano-2-hydroxy)-ethylpiperidin-1-yl)-3-fluorophenyl]-2-oxo-oxazolidin-5-ylmethyloxy}-iso-oxazole]: 146 to 148 °C.
The same measure, in the same setting: for `CS(=O)(=O)OC[C@H]1CN(c2ccc(N3CCC(C(C#N)CO)CC3)c(F)c2)C(=O)O1` (stereo partly drawn) [Example 154, (R)-{3-[4-(4-(1-cyano-2-hydroxy)-ethylpiperidin-1-yl)-3-fluorophenyl]-2-oxo-oxazolidin-5-ylmethyl}-methanesulphonate] the value was 144 to 146 °C.
On the same count and under the same terms, the same measure for `CS(=O)(=O)OC[C@H]1CN(c2ccc(N3CCC(C(C#N)C(=O)O)CC3)c(F)c2)C(=O)O1` (stereo partly drawn) [Example 155, (R)-{3-[4-(4-(1-Cyano-1-hydroxycarbonyl)-methylpiperidin-1-yl)-3-fluorophenyl]-2-oxo-oxazolidin-5-ylmethyl}-methanesulphonate]: 108 to 110 °C; for `CS(=O)(=O)OC[C@H]1CN(c2ccc(N3CCC(C(C#N)c4nccs4)CC3)c(F)c2)C(=O)O1` (stereo partly drawn) [Example 157, (R)-{3-[4-(4-(1-cyano-1-(1,3-thiazol-2-yl))-methylpiperidin-1-yl)-3-fluorophenyl]-2-oxo-oxazolidin-5-ylmethyl}-methanesulphonate]: 64 to 66 °C.
As to `CS(=O)(=O)OC[C@H]1CN(c2ccc(N3CCC(C(C#N)C(N)=O)CC3)c(F)c2)C(=O)O1` (stereo partly drawn) [Example 158, (R)-{3-[4-(4-(1-cyano-1-carboxamido)-methylpiperidin-1-yl)-3-fluorophenyl]-2-oxo-oxazolidin-5-ylmethyl}-methanesulphonate], the melting point lay in the range of 220 to 222 °C.
Still for that read-out and setting: the same measure for `CC(=O)NC[C@H]1CN(c2ccc(N3CC=C(CC#N)C(C)C3)c(F)c2)C(=O)O1` (stereo partly drawn) [Example 161, (S)-N-{3-[4-(4-cyanomethyl-3-methyl-4,5-dehydropiperidin-1-yl)-3-fluorophenyl]-2-oxo-oxazolidin-5-ylmethyl}-acetamide]: 149 to 150 °C; for `CC(C)COC(=O)NC[C@H]1CN(c2ccc(N3CC=C(CC#N)C(F)C3)c(F)c2)C(=O)O1` (stereo partly drawn) [Example 163, (S)-N-{3-[4-(4-cyanomethyl-3-fluoro-4,5-dehydropiperidin-1-yl)-3-fluorophenyl]-2-oxo-oxazolidin-5-ylmethyl}-isobutylcarbamate]: 146 to 148 °C.
